Earlier results on 1 compound are cited in patent US20260217749A1, “METAL COMPLEX COMPOUNDS AS PHOTOSENSITIZERS FOR PHOTODYNAMIC THERAPY” (UNIVERSITAT DE BARCELONA, priority 2023, published 2026).

The data set concerns SK-MEL-28 melanoma cells. The conditions noted are these: red light irradiation (625 nm).

For the compound `Cc1ccnc(-c2cc(C)ccn2)c1.Cc1ccnc(-c2cc(C)ccn2)c1.[Cl-].[Cl-].[Ru+2].c1csc(-c2ccc(-c3ccc(-c4nc5c6cccnc6c6ncccc6c5[nH]4)s3)s2)c1` [TLD-1433], the 50% inhibitory concentration (IC50) was 2300 nM and the PI value entry is given as “moderate”.

As a reminder, the IC50 is the concentration at which inhibition is half-maximal.
